In article PMC9011347, “Small-Molecule Inhibitors Targeting Lipolysis in Human Adipocytes” (Journal of the American Chemical Society, 2022):

Test: Serum stability of ATGL inhibitors (UHPLC-MS)
Assay type: in vitro ADME, human
Details: 3 h at 37 °C
Experimental: Figure 2 Development and characterization of the human ATGL inhibitor NG-497. (a) Structure and IC50 values of human ATGL inhibitors. (b) Dose-dependent inhibition of human ATGL by respective inhibitors. (c) ATGL activity was determined at the indicated substrate concentrations in the absence and presence of NG-497 (0.5 μM). Ki was determined by nonlinear regression analysis using GraphPad Prism. Lineweaver–Burk analysis of ATGL inhibition is shown in the inset. (d) Toxicity of NG-497 in HepG2 cells was determined after 24 h incubation at indicated concentrations. Cisplatin and DMSO were used as positive and negative controls, respectively. Cytotoxicity was determined using the Roche LDH Kit and calculated as relative LDH release compared to fully lysed cells. (e) Stability of NG-497 was analyzed via ultrahigh-performance liquid chromatography–mass spectrometry (UHPLC-MS) after incubation in human serum for 0 or 3 h at 37 °C. Atglistatin and a chemically related unstable compound were used as controls. […] NG-497 concentrations/well were determined at the indicated time points using UHPLC-MS. […] Statistical significance was determined via t test (*p < 0.05; **p < 0.01; ***p < 0.001) or ANOVA followed by Bonferroni post hoc test (^###p < 0.001). […] The detected 297 lipid species of both groups were analyzed with supervised multivariate analysis OPLS-DA and are shown as a loading plot. […]

Row | Structure (SMILES) | stability in human serum
1 | CN(C)C(=O)Nc1cccc(-c2ccc(N(C)C)cc2)c1 [Atglistatin, reference compound] | not metabolized
2 | CCOc1ccc(-c2cc(OC)cc(C(=O)OC(C)C)n2)cc1 [NG-497] | not metabolized
